Structures are written as SMILES. Residue numbers refer to the chain shown, from its start.

The source of these data is patent US8426644B2, “Compositions and methods for inhibiting an isoform of human manganese superoxide dismutase” (MitoTek, LLC, priority 2005, dated 2013).

Assay [1] has as its target T1, isoMnSOD (Mus musculus, UniProt P09671, DEL77-115).
T1 construct: Mitochondrial pellets were lysed in 1% CHAPS detergent; from tissue; host or cells: mouse cerebellum mitochondria
T1 sequence (P09671 with tags, fused parts or gaps DEL77-115): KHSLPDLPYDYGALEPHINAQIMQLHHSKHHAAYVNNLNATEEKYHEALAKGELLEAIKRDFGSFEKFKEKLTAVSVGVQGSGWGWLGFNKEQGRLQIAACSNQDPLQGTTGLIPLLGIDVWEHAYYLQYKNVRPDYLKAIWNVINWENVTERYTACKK
Nature of the assay: isoMnSOD peroxidative activity, cerebellum mitochondrial extracts on nitrocellulose strips (Example 20). It is filed as biochemical. The conditions noted are these: 1 μM of compound, 30 min at room temperature; cerebellum of 4 week mice; 1 mM hydrogen peroxide, luminol; FIG. 7. The protocol: Protein extracts containing isoMnSOD were prepared from cerebellum from 4 week mice by first forming a liquid nitrogen powder, resuspended with five volumes of ice-cold lysis buffer (in mM: 20 HEPES-KOH, pH 7.5, 10 KCl, 1.5 MgCl2, 1 DTT, 1 EDTA, 1 EGTA, and 0.1 PMSF) containing 70 mM mannitol and 250 mM sucrose and homogenizing with a Dounce homogenizer. Extract was centrifuged at 750 g for 10 min at 4° C. and the supernatant was then centrifuged at 10,000 g for 15 min at 4° C. to pellet the mitochondrial pellet, which was then stored frozen. Mitochondrial pellets were lysed in 1% CHAPS detergent containing 50 mM Tris-Cl, pH 8.0, 500 mM NaCl and then loaded onto a native 5% polyacrylamide gel. Protein concentration was measured by using the Bradford protein assay kit. After transfer to nitrocellulose, nitrocellulose strips were incubated with 1 μM of compound in 50 mM Tris-HCl, 50 mM NaCl, 5 mM EDTA, pH 8.0 for 30 min at room temperature, then washed extensively with incubation buffer alone. The peroxidative activity of isoMnSOD was measured using 100 of Femtomole luminol (Pierce) containing 1 mM hydrogen peroxide per nitrocellulose strip and exposed to x-ray film.

For assay [2], the target named is T2, isoMnSOD (Rattus norvegicus, UniProt P07895, DEL77-115).
T2 construct: Cerebella explants from one 4 week rat, strain WKY; from tissue; host or cells: rat (WKY) cerebellum explants
T2 sequence (P07895 with tags, fused parts or gaps DEL77-115): T1 sequence (P09671 with tags, fused parts or gaps DEL77-115) with A33T, A40V, T151S, E152Q, T155I, A156V
Nature of the assay: Immunodetection of isoMnSOD in treated cerebella explants (Example 24). The assay is classed as cell-based. Particulars: cerebella explants of 4 week rat, one hour at 37° C., 5 μM OA-diHPAc; western immunoblot. On the procedure:
Immuno detection of isoMnSOD and measurement of isoMnSOD (a) and measurement of caspase 9 cleavage (b) in cerebella explants from 4 week old rat cerebellum and treated with 2-(3,4-dihydroxy-phenyl)-N-heptadec-8-enyl-acetamide (IV). Cerebella explants from one 4 week rat, strain WKY, were incubated in aerated 4 mL of M199:MCDB 10% FBS and incubated one hour at 37° C. in a roller bottle for maximum oxygenation, with or without 5 μM OA-diHPAc. Explants were harvested, quick frozen, and then lysed in boiling SDS and 5% BME and protein extracts were separated in a 4-12% polyacrylamide gel (Novex) and examined by western immunoblot. […] The peptide sequence used as the antigen to form the MnSOD E2/E4 antibody is at the active site of isoMnSOD and modification of isoMnSOD by 2-(3,4-dihydroxy-phenyl)-N-heptadec-8-enyl-acetamide (IV) appears to block epitope recognition. RT/PCR analysis of the MnSOD mRNAs confirmed that the mRNA encoding isoMnSOD is present in treated explants.
For orientation: Immunoblotting shows a protein as a band on a membrane.

Assay [3] relates to AMP kinase phosphorylation at Thr172. Nature of the assay: Doxorubicin-induced activation of AMP kinase in heart explants, western immunoblot (Example 22). It is filed as cell-based. The conditions noted are these: rat heart explants, 1 mM doxorubicin and 4 μM compound overnight; FIG. 9 Lane 3. The protocol: Hearts from 4 week rats were excised and minced without trypsin in 50:50 medium M199:MCDB 10% FBA containing 5 mM Creatine, 2 mM L-carnitine and 5 mM taurine. Explants were incubated overnight at 37° C. in a 5% CO2 incubator untreated (Lane 1), with 1 mM doxorubicin (Lane 2), and with 1 mM doxorubicin and 4 μM 2-(3,4-dihydroxy-phenyl)-N-heptadec-8-enyl-acetamide (IV) (Lane 3). Explants were frozen at −70° C., liquid nitrogen powders were prepared and lysed and denatured in 2% SDS with 5% BME with boiling for 5 min. Protein extracts were examined by western immunoblotting using a rabbit monoclonal recognizing Phospho-AMP Kinase-α (Thr172) (CellSignal).
The AMP kinase was activated by an elevated AMP(high)/ATP(low) ratio due to cellular and environmental stress, such as heat shock, hypoxia and ischemia. Elevated AMP/ATP ratio and activation of AMPK by phosphorylation at Thr172 can also occur by uncoupling mitochondrial oxidative phosphorylation from respiration with oligomycin and thereby loss of mitochondrial ATP synthesis.

The subject of assay [4] is PC12 neuroendocrine cell line. Nature of the assay: Hydrogen peroxide-mediated cell death, Live/Dead assay (Example 21). The conditions noted are these: PC12 preincubated with 4 μM for 1 hr, then 1 mM hydrogen peroxide, 20 hrs; FIG. 8. The assay is classed as cell-based. On the procedure:
Neuroendocrine cell line, PC12, was cultured in DMEM medium containing 10% FBS on plates treated with collagen. Freshly passed cells (1×10(7) cells) were preincubated with 4 μM 2-(3,4-dihydroxy-phenyl)-N-heptadec-8-enyl-acetamide (IV), 2-(2,5-dihydroxy-phenyl)-N-heptadec-8-enyl-acetamide (V) (containing about 30% impurity), or other compound for 1 hr and then treated with 1 mM hydrogen peroxide. After 20 hrs, cultures were examined by the Live/Dead assay (Molecular Probes).

The next assay relates to Rats. Nature of the assay: Doxorubicin-induced heart failure in rats (Example 23). The assay is classed as in vivo, rat. The conditions noted are these: IP 10 mg/kg doxorubicin, FIG. 10. On the procedure:
Rats were treated with IP injections of 10 mg/kg doxorubicin. Left Ventricular Developed Pressure (LVDP): Systolic Pressure-Diastolic Pressure, which is an indicator of ventricular systolic function; dP/dtmax: Maximal rate of pressure development, which is an indicator of ventricular systolic function; dP/dtmin Minimal rate of pressure development, which is an indicator of ventricular diastolic function.

With `CCCCCCCC/C=C\CCCCCCCNC(=O)Cc1ccc(O)c(O)c1` [2-(3,4-dihydroxy-phenyl)-N-heptadec-8-enyl-acetamide], the Inhibition entry at isoMnSOD [1] is “yes”. In addition, at isoMnSOD [2], the “antigenicity of isoMnSOD with MnSOD E2/E4 peptide antibody and MnSOD antibody” value is recorded as “loss of antigenicity with the MnSOD E21E4 peptide antibody but not with the MnSOD antibody”. The “suppression of doxorubicin-induced AMP kinase activation” value in assay [3] is “suppresses this activation”. Moreover, the “Protection of hydrogen peroxide-mediated cell death” value in assay [4] is on record as “Protection”. In the assay with Rats, the “cardio protection of doxorubicin-induced heart failure (LVDP, dP/dtmax, dP/dtmin)” value is listed as “exerts cardio protection”.
